biological target: T1, IRAK4 (Homo sapiens, UniProt Q9NWZ3); assay: 2-hour 1 mM ATP IRAK4 Biochemical assay (as above, but with 100 pM IRAK4 and 1 mM ATP); conditions: IRAK4 MSD BIOCHEMICAL (1 mM ATP) IC50 (μM), 100 pM IRAK4, 2 hours
T1 sequence (Q9NWZ3 1-460): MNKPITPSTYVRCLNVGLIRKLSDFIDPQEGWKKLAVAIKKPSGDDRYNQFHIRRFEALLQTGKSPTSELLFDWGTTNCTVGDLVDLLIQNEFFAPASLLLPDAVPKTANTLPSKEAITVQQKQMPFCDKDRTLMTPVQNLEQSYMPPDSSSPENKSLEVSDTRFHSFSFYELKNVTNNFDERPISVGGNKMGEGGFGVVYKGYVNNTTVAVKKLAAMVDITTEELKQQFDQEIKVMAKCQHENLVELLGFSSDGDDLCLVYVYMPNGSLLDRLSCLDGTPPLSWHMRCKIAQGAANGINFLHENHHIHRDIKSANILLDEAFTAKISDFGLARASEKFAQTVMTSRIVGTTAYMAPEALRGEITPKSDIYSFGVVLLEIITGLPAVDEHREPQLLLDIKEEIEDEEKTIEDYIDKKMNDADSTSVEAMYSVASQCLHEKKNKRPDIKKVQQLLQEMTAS
How it was run: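 MSD electrochemiluminescence read-out: biotinylated peptide product bound to streptavidin plates, probed with anti-P-Thr rabbit antibody and Sulfo-Tag goat anti-rabbit. Kinase reaction used 1 mM ATP and 100 pM IRAK4 over 2 hours before EDTA quench.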

Compound	IC50 [µM]
COc1ncccc1C(=O)Nc1cn2cc(C34COC(C)(C3)C4)nc2cc1OC(C)C(F)(F)F (single isomer, unassigned) [Example 318, 2-methoxy-N-(2-(1-methyl-2-oxabicyclo[2.1.1]hexan-4-yl)-7-((1,1,1-trifluoropropan-2-yl)oxy)imidazo[1,2-a]pyridin-6-yl)nicotinamide]	0.005
CC(C)Oc1cc2nc(C34CC(F)(C3)C4)cn2cc1NC(=O)c1cccc(C(F)F)n1 [Example 258, 6-(difluoromethyl)-N-(2-(3-fluorobicyclo[1.1.1]pentan-1-yl)-7-isopropoxyimidazo[1,2-a]pyridin-6-yl)picolinamide]	0.001
CCOc1nc2nc(C3CCOCC3)cn2cc1NC(=O)c1cccc2c1OCC2 [Example 343, N-(7-ethoxy-2-(tetrahydro-2H-pyran-4-yl)imidazo[1,2-a]pyrimidin-6-yl)-2,3-dihydrobenzofuran-7-carboxamide]	0.004
CCOc1cc2nc(C3CN(CC(F)(F)F)C3)cn2cc1NC(=O)c1cccc(C(F)F)n1 [Example 77, 6-(difluoromethyl)-N-(7-ethoxy-2-(1-(2,2,2-trifluoroethyl)azetidin-3-yl)imidazo[1,2-a]pyridin-6-yl)picolinamide]	0.001
O=C(Nc1cn2cc(C3CCOCC3)nc2cn1)c1cccc2c1OCC2 [Example 275, N-(2-(tetrahydro-2H-pyran-4-yl)imidazo[1,2-a]pyrazin-6-yl)-2,3-dihydrobenzofuran-7-carboxamide]	0.038
Cc1cccc(C(=O)Nc2cn3cc(C45COC(C)(C4)C5)nc3c(OC(C)C)n2)c1F [Example 478, 2-fluoro-N-(8-isopropoxy-2-(1-methyl-2-oxabicyclo[2.1.1]hexan-4-yl)imidazo[1,2-a]pyrazin-6-yl)-3-methylbenzamide 2,2,2-trifluoroacetate]	0.012
CC(C)Oc1c(NC(=O)c2cccn(C(F)F)c2=O)cn2cc(C34COC(C)(C3)C4)nc2c1F [Example 324, 1-(difluoromethyl)-N-(8-fluoro-7-isopropoxy-2-(1-methyl-2-oxabicyclo[2.1.1]hexan-4-yl)imidazo[1,2-a]pyridin-6-yl)-2-oxo-1,2-dihydropyridine-3-carboxamide]	0.002

Other lines, results leading:

IC50 [µM]	Compound
0.011	COc1nc(NC(=O)c2cccc(C(F)F)n2)cn2cc(C34COC(C)(C3)C4)nc12 [Example 554, 6-(difluoromethyl)-N-(8-methoxy-2-(1-methyl-2-oxabicyclo[2.1.1]hexan-4-yl)imidazo[1,2-a]pyrazin-6-yl)picolinamide 2,2,2-trifluoroacetate]
0.005	COc1nc(NC(=O)c2cccc(C(F)F)n2)cn2cc([C@@]34CC[C@@](C)(C3)OC4)nc12 (single isomer, unassigned) [Example 276, 6-(Difluoromethyl)-N-(8-methoxy-2-((1S*,4R*)-1-methyl-2-oxabicyclo[2.2.1]heptan-4-yl)imidazo[1,2-a]pyrazin-6-yl)picolinamide]
0.017	COc1nc(NC(=O)c2cccc(C(F)F)n2)cn2cc(C34CC(C(F)F)(C3)C4)nc12 [Example 552, 6-(difluoromethyl)-N-(2-(3-(difluoromethyl)bicyclo[1.1.1]pentan-1-yl)-8-methoxyimidazo[1,2-a]pyrazin-6-yl)picolinamide 2,2,2-trifluoroacetate]
0.005	COc1nc(NC(=O)c2cccc(C(F)(F)F)n2)cn2cc(C3CCCOC3)nc12 (single isomer, unassigned) [Example 300, N-(8-methoxy-2-(tetrahydro-2H-pyran-3-yl)imidazo[1,2-a]pyrazin-6-yl)-6-(trifluoromethyl)picolinamide]
0.051	COc1nc(NC(=O)c2cccc(C)c2F)cn2cc(C34CCC(C)(C3)OC4)nc12 (stereo not drawn) [Example 467, 2-fluoro-N-(8-methoxy-2-(1-methyl-2-oxabicyclo[2.2.1]heptan-4-yl)imidazo[1,2-a]pyrazin-6-yl)-3-methylbenzamide 2,2,2-trifluoroacetate]

— patent US20220089592A1, “IMIDAZO[1,2-A]PYRIDINYL DERIVATIVES AS IRAK4 INHIBITORS” (priority 2019, published 2022)
